Measurements as given in article PMC6063448, “Antimicrobial activity of linear lipopeptides derived from BP100 towards plant pathogens” (PLoS ONE, 2018).

Assays:
[1] = system: defense-related genes in tomato plants; experiment: Induction of defense gene expression of tomato plants (RT-qPCR); type: in vivo, tomato cv. Rio Grande; conditions: for BCB gene expression, fold induction / ERT3 gene expression, fold induction / GluA gene expression, fold induction / Harp gene expression, fold induction / LOX gene expression, fold induction / Osm2 gene expression, fold induction / PPO gene expression, fold induction / PR1 gene expression, fold induction / PinII gene expression, fold induction / Sub1 gene expression, fold induction / Tas14 gene expression, fold induction: tomato leaves sprayed, 24 h, peptides and flg15 125 μM, JA 2.5 mM, ASM 300 mg/L, ΔΔCt relative to actin, above 2 = overexpression; for Defense gene expression in tomato plants (genes overexpressed): treatment at 125 μM, significant overexpression (REST2009)
Protocol: Seeds of tomato cv. Rio Grande plants were sown in hydroponic seed plugs (rockwool), germinated and grown under controlled greenhouse conditions (25 ± 2°C, 16 h light / 15 ± 2°C, 8 h dark, and 60% RH). Two-week old seedlings (two cotyledons) were transplanted into rockwool plugs (7.5×7.5×6.5 cm, Grodan Iberica). The experimental design consisted of three replicates of three plants per treatment. After two weeks, tomato leaves were sprayed with aqueous solutions of BP100, 9 selected derivatives and flg15 at 125 μM, jasmonic acid at 2.5 mM (Sigma-Aldrich, Sant Louis, Missouri, UE), and acybenzolar-S-methyl at 300 mg/L (Syngenta, Basel, Switzerland), until the run-off point. Water-sprayed plants were used as not treated controls. Twenty-four hours after product application leaf samples were collected and processed to extract RNA for RT-qPCR assays. Plant material was ground to a fine powder in liquid nitrogen with the Tissuelyzer II system (Qiagen). Total RNA was extracted from leaves using PureLink Plant RNA Reagent (Invitrogen, Life Technologies) according to the manufacturer’s manual. The RNA was solubilized in RNAse free water and was routinely subjected to DNAse treatment (Ambion® Turbo DNA-free™, Life Technologies) to remove any contaminant DNA. In each step, the RNA was quantified using a Nanodrop N-2000 spectrophotometer, and its integrity verified by denaturing agarose gel electrophoresis. First-strand of complementary DNA (cDNA) was generated from leave RNA using reverse transcriptase (High Capacity cDNA Reverse Transcription Kit, Invitrogen) according to the manufacturer’s manual.
To test gene defense induction in the treated tomato plants, a qPCR assay was performed. Quantitative PCR was carried out in a fluorometric thermal cycler (qPCR Quant Studio 5, Applied Biosystems) by using a Mix SYBR®Green PCR Master Mix (Applied Biosystems). The total reaction volume of this PCR reaction was 20 μL and the reaction mixture was 1 μL of each primer set at the adequate concentration, 10 μL of MixSyber Green, 6 μL of distilled water and 2 μL of cDNA. Melting curve analysis was performed after amplification to verify amplification specificity. A constitutive gene (actin gene) was used as reference control, and the following genes implicated in plant defense response were analyzed: Pathogenesis-related protein-1 (PR1), Harpin (Harp), Polyphenol oxidase (PPO), Subtilisin-like protease (Sub1), Blue copper binding-protein (BCB), Osmotin (Osm2), Acidic β-1,3 endoglucanase (GluA), Lypoxigenase (LOX), Protein inhibitor II (PinII), Dehydrin (Tas14) and Ethylene response transcription factor (ERT3). […] For each gene system, the concentration of the primer pair was optimized. The primer concentration was 100 nM for all the genes except for the GluA, Harp, PR1 and actin genes which optimized concentration was 300 nM. A calibration curve was prepared by cloning the corresponding DNA in the pSpark cloning vector (Canvax, Córdoba, Spain) according to the manufacturer instructions, which was then used to transform E. coli DH5α by standard procedures. The number of plasmid copies were quantified after purification from E. coli (QIAGEN Iberia, S. L., Madrid, Spain), and appropriate dilutions were prepared to obtain the standard curve. […] Relative quantification of gene expression was done using the ΔΔCt method. Each biological repetition treatment was analyzed in duplicate. The mean of the Ct values obtained were used to estimate the fold change value of the endogenous reference gene (actin) and the target plant defense genes.

[2] = system: Penicillium expansum EPS26; experiment: MIC, antifungal growth inhibition in microtiter plates (PDB); type: cell-based; conditions: Pe, 22°C, seven days, OD 600 nm, lowest concentration with no growth, given as interval of tested concentrations, three replicates, experiment repeated twice
In short: (§1)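 Conidial suspensions (10^3 conidia/mL P. expansum, 10^4 F. oxysporum) incubated with peptides in PDB with 0.003% chloramphenicol at 22 °C for seven days, OD600 read every 2 h. MIC is the lowest concentration with no growth at the end; triplicates, experiment repeated twice.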

[3] = system: Fusarium oxysporum f. sp. lycopersici FOL 3 race 2; experiment: as above; type: cell-based; conditions: Fo, 22°C, seven days, OD 600 nm, lowest concentration with no growth, given as interval of tested concentrations, three replicates, experiment repeated twice
In short: as §1

Row | SMILES | BCB gene expression, fold induction [1] | ERT3 gene expression, fold induction [1] | GluA gene expression, fold induction [1] | Harp gene expression, fold induction [1] | LOX gene expression, fold induction [1] | Osm2 gene expression, fold induction [1] | PPO gene expression, fold induction [1] | PR1 gene expression, fold induction [1] | PinII gene expression, fold induction [1] | Sub1 gene expression, fold induction [1] | Tas14 gene expression, fold induction [1] | MIC [2] | MIC [3] | Defense gene expression in tomato plants (genes overexpressed) [1]
1 | CCCCCC(=O)NCCCC[C@H](NC(=O)[C@H](CCCCN)NC(=O)[C@H](CCCCN)NC(=O)[C@H](Cc1ccccc1)NC(=O)[C@H](CC(C)C)NC(=O)[C@H](CCCCN)NC(=O)[C@H](CCCCN)NC(C)=O)C(=O)N[C@@H](CC(C)C)C(=O)N[C@@H](CCCCN)C(=O)N[C@@H](Cc1ccc(O)cc1)C(=O)N[C@@H](CC(C)C)C(N)=O [BP374, Ac-KKLFKKK(COC5H11)LKYL-NH2] | 1.0 | 2.0 | 0.5 | 0.9 | 1.9 | 1.6 | 0.7 | 0.5 | 1.7 | 0.8 | 1.2 | >25 µM | 0.8 to 1.6 µM | –
2 | CCCCCCCCCCCC(=O)NCCCC[C@H](NC(=O)[C@H](CC(C)C)NC(=O)[C@@H](NC(=O)[C@H](CCCCN)NC(=O)[C@H](CCCCN)NC(=O)[C@H](Cc1ccccc1)NC(=O)[C@H](CC(C)C)NC(=O)[C@H](CCCCN)NC(=O)[C@H](CCCCN)NC(C)=O)[C@@H](C)CC)C(=O)N[C@@H](Cc1ccc(O)cc1)C(=O)N[C@@H](CC(C)C)C(N)=O [BP400, Ac-KKLFKKILK(COC11H23)YL-NH2] | 0.6 | 0.2 | 0.1 | 1.4 | 1.1 | 0.9 | 1.4 | 0.1 | 1.1 | 0.5 | 8.3 | >25 µM | 6.2 to 12.5 µM | one gene (Osm2, Tas14 or BCB)
3 | CCCC(=O)NCCCC[C@H](NC(=O)[C@H](CCCCN)NC(C)=O)C(=O)N[C@@H](CC(C)C)C(=O)N[C@@H](Cc1ccccc1)C(=O)N[C@@H](CCCCN)C(=O)N[C@@H](CCCCN)C(=O)N[C@H](C(=O)N[C@@H](CC(C)C)C(=O)N[C@@H](CCCCN)C(=O)N[C@@H](Cc1ccc(O)cc1)C(=O)N[C@@H](CC(C)C)C(N)=O)[C@@H](C)CC [BP381, Ac-KK(COC3H7)LFKKILKYL-NH2] | 1.2 | 0.7 | 0.6 | 0.7 | 0.8 | 2.1 | 1.3 | 0.2 | 0.4 | 0.5 | 3.4 | 1.6 to 3.1 µM | 0.8 to 1.6 µM | one gene (Osm2, Tas14 or BCB) and Osm2
4 | CC[C@H](C)[C@H](NC(=O)[C@H](CCCCN)NC(=O)[C@H](CCCCN)NC(=O)[C@H](Cc1ccccc1)NC(=O)[C@H](CC(C)C)NC(=O)[C@H](CCCCN)NC(=O)[C@@H](N)CCCCN)C(=O)N[C@@H](CC(C)C)C(=O)N[C@@H](CCCCN)C(=O)N[C@@H](Cc1ccc(O)cc1)C(=O)N[C@@H](CC(C)C)C(N)=O [BP100, H-Lys-Lys-Leu-Phe-Lys-Lys-Ile-Leu-Lys-Tyr-Leu-NH2] | 0.8 | 1.0 | 1.5 | 0.5 | 1.2 | 1.0 | 3.2 | 2 | 4.9 | 1.8 | 1.4 | >25 µM | 0.8 to 1.6 µM | PPO and PinII
5 | CCCC(=O)NCCCC[C@H](NC(=O)[C@@H](NC(=O)[C@H](CCCCN)NC(=O)[C@H](CCCCN)NC(=O)[C@H](Cc1ccccc1)NC(=O)[C@H](CC(C)C)NC(=O)[C@H](CCCCN)NC(=O)[C@H](CCCCN)NC(C)=O)[C@@H](C)CC)C(=O)N[C@@H](CCCCN)C(=O)N[C@@H](Cc1ccc(O)cc1)C(=O)N[C@@H](CC(C)C)C(N)=O [BP387, Ac-KKLFKKIK(COC3H7)KYL-NH2] | 1.7 | 0.2 | 0.7 | 1.2 | 0.7 | 1.0 | 1.3 | 0.4 | – | 0.8 | 1.0 | 6.2 to 12.5 µM | 0.8 to 1.6 µM | none
6 | CCCC(=O)NCCCC[C@H](NC(=O)[C@H](CCCCN)NC(=O)[C@H](Cc1ccccc1)NC(=O)[C@H](CC(C)C)NC(=O)[C@H](CCCCN)NC(=O)[C@H](CCCCN)NC(C)=O)C(=O)N[C@H](C(=O)N[C@@H](CC(C)C)C(=O)N[C@@H](CCCCN)C(=O)N[C@@H](Cc1ccc(O)cc1)C(=O)N[C@@H](CC(C)C)C(N)=O)[C@@H](C)CC [BP385, Ac-KKLFKK(COC3H7)ILKYL-NH2] | 4.2 | 0.2 | 0.7 | 2.3 | 1.1 | 1.2 | 1.7 | 3.2 | 7.1 | 1.0 | 0.7 | 6.2 to 12.5 µM | 1.6 to 3.1 µM | one gene (Osm2, Tas14 or BCB)
7 | CCCC(=O)NCCCC[C@H](NC(=O)[C@H](Cc1ccc(O)cc1)NC(=O)[C@H](CCCCN)NC(=O)[C@H](CC(C)C)NC(=O)[C@@H](NC(=O)[C@H](CCCCN)NC(=O)[C@H](CCCCN)NC(=O)[C@H](Cc1ccccc1)NC(=O)[C@H](CC(C)C)NC(=O)[C@H](CCCCN)NC(=O)[C@H](CCCCN)NC(C)=O)[C@@H](C)CC)C(N)=O [BP390, Ac-KKLFKKILKYK(COC3H7)-NH2] | 0.6 | 0.7 | 0.6 | 0.5 | 1.2 | 3.0 | 0.9 | 0.2 | 0.2 | 0.7 | 1.0 | 6.2 to 12.5 µM | 0.8 to 1.6 µM | one gene (Osm2, Tas14 or BCB)
